Assays:
Type in all cases: cell-based
Aged Human Keratinocytes = test: Glutathione assay (total glutathione, GSH-GSSG Glo) after menadione challenge; conditions: for % Protection (improvement vs. vehicle control + menadione): glutathione; for Mean (uM glutathione): Table 1A
Excerpt: The medium was refreshed every 2-3 days. Subsequently, cells were trypsinized at 90% confluency and seeded at a density of 1×10^4 per well into 96-well plates with white wall and clear bottom. […] The concentration of all amino acids constituting the GAP mixture used in this assay are designated in the data tables, and fully described in the abbreviations list below. After one or two hours of pre-treatment with GAP (and additional test reagents where described), keratinocytes were then challenged with 25 uM menadione (Sigma-Aldrich), a known inducer of oxidative stress. […] In summary, after cell treatment, the media was removed and replaced with a cell lysis reagent for 5 minutes at 20-25° C.; note, all remaining steps were also conducted at 20-25° C. Next, a luciferase generation reagent was added to each well and incubated for 30 minutes. Following this step, a luciferin detection reagent was added to each well and plates were incubated for 15 minutes. Finally, plates were then read for luminescence in a FlexStation 3 plate reader (Molecular Devices). Total glutathione levels were calculated after interpolation of glutathione concentrations from a standard curve. Experimental conditions were typically conducted in at least triplicate determinations. Statistical significance was calculated using 1-way ANOVA. Percent protection was calculated by using the calculated glutathione levels from each experiment in the following equation: […]

Human Keratinocytes [1] = test: Reactive oxygen species (ROS) assay, CellROX green; conditions: for % Protection (improvement vs. vehicle control + menadione): ROS
Experimental: The medium was refreshed every other day. Subsequently, cells were trypsinized at 90% confluency and seeded at a density of 1-2×10^4 per well into 96-well plates with black wall and clear bottom. On the second day after seeding, cell medium was replaced with Hank's Balanced Salt Solution (HBSS) with or without menadione (10-25 uM), GAP (typically at 49 uM pyroglutamic acid, 60 uM cystine, 194 uM glycine), GAP vehicle (0.2 mM NaOH, pH 7.5), above-described additional test reagents, combinations of GAP with additional test reagents, or L-cystine esters alone and incubated for additional 18 hours. For ROS detection, CellROX green (Life Tech, Thermo Fisher Scientific, Rockford, USA) reagent was added into each well to a final concentration of 15-25 uM and incubated for additional 2-4 hours at 37° C. in a humidified incubator. The ROS fluorescence was detected using a Tecan microplate reader (Excitation/Emission=490/525). […] Where indicated, percent protection was calculated as a comparison to menadione alone treatment, using the measured relative fluorescent units in the following equation: ROS levels were evaluated together with cell viability because it is possible to get a false negative for ROS if treatment is so toxic that at the time of assay, cells are dead (and there are no longer any detectable ROS). Decrease in ROS levels is meaningful if cells are still viable.

Human Keratinocytes [2] = test: Cell viability assay (CCK-8); conditions: for % Protection (improvement vs. vehicle control + menadione): cell viability
Experimental: The medium was refreshed every other day. Subsequently, cells were trypsinized at 90% confluency and seeded at a density of 2×10^4 per well into 96-well transparent tissue culture plates. On the second day after seeding, cell medium was replaced with treatments as described above in ROS assay section. After 18 hours, […] (CCK-8) reagent (Dojindo, Kumamoto, Japan) was diluted 1:10 in HBSS and incubated with cells for 4 h at 37° C. in a humidified incubator. Optical absorption at 450 nm was measured using a Tecan Safire2 plate reader. […] Where indicated, percent protection was calculated as a comparison to menadione alone treatment, using the measured relative absorbance units in the following equation: […]

[3] = cystine ester at 80 uM + menadione
[4] = cystine ester at 20 uM + menadione
[5] = cystine ester at 40 uM + menadione
[6] = cystine ester at 160 uM + menadione
[7] = Table 1A glutathione, test reagent at 0.5 mM, alone or with GAP 10, + 25 uM menadione
[8] = nicotinamide / nicotinamide riboside / picolinamide at 0.5 mM, alone or with GAP 10, + 25 uM menadione
[9] = Table 1A glutathione, test reagent at 5 mM, alone or with GAP 10, + 25 uM menadione
[10] = Table 1A glutathione, test reagent at 10 mM, alone or with GAP 10, + 25 uM menadione
[11] = nicotinamide / picolinamide at 5 mM, alone or with GAP 10, + 25 uM menadione
[12] = nicotinamide / picolinamide at 10 mM, alone or with GAP 10, + 25 uM menadione
[13] = Table 1B, vs menadione alone, nicotinamide 10 mM, GAP typically 49/60/194 uM

COC(=O)[C@@H](N)CSSC[C@H](N)C(=O)OC.Cl.Cl [CDME, L-Cystine dimethyl ester dihydrochloride]
Mean (μm glutathione) (Aged Human Keratinocytes; [3]): 1.09^1,2 μm
% Protection (improvement vs. vehicle control + menadione) (Aged Human Keratinocytes; [3]): 31^1,2%
% Protection (improvement vs. vehicle control + menadione) (Human Keratinocytes [1]; [4]): 18.2^2%
% Protection (improvement vs. vehicle control + menadione) (Human Keratinocytes [1]; [5]): 15.5^1,2%
% Protection (improvement vs. vehicle control + menadione) (Human Keratinocytes [1]; [3]): 13.3^1,2%
% Protection (improvement vs. vehicle control + menadione) (Human Keratinocytes [1]; [6]): 25.7^2%
% Protection (improvement vs. vehicle control + menadione) (Human Keratinocytes [2]; [4]): 30.2^1,2%
% Protection (improvement vs. vehicle control + menadione) (Human Keratinocytes [2]; [5]): 33.4^1,2%
% Protection (improvement vs. vehicle control + menadione) (Human Keratinocytes [2]; [3]): 24.6^1,2%
% Protection (improvement vs. vehicle control + menadione) (Human Keratinocytes [2]; [6]): 51.7^1,2%
Cell viability (% of vehicle control) (Human Keratinocytes [2]; [4]): 90.9^1,2 % of vehicle control
Cell viability (% of vehicle control) (Human Keratinocytes [2]; [5]): 93.1^1,2 % of vehicle control
Cell viability (% of vehicle control) (Human Keratinocytes [2]; [3]): 87.0^1,2 % of vehicle control
Cell viability (% of vehicle control) (Human Keratinocytes [2]; [6]): 105.9^1,2 % of vehicle control

CCOC(=O)[C@@H](N)CSSC[C@H](N)C(=O)OCC.Cl.Cl [DEC, Diethyl L-cystinate dihydrochloride]
Mean (μm glutathione) (Aged Human Keratinocytes; [5]): 0.54^1,2 μm
Mean (μm glutathione) (Aged Human Keratinocytes; [3]): 2.72^1,2 μm
% Protection (improvement vs. vehicle control + menadione) (Aged Human Keratinocytes; [5]): 13^1,2%
% Protection (improvement vs. vehicle control + menadione) (Aged Human Keratinocytes; [3]): 93^1,2%
% Protection (improvement vs. vehicle control + menadione) (Human Keratinocytes [1]; [4]): 38.0^1,2%
% Protection (improvement vs. vehicle control + menadione) (Human Keratinocytes [1]; [5]): 43.6^1,2%
% Protection (improvement vs. vehicle control + menadione) (Human Keratinocytes [1]; [3]): 37.7^1,2%
% Protection (improvement vs. vehicle control + menadione) (Human Keratinocytes [1]; [6]): 32.4^1,2%
% Protection (improvement vs. vehicle control + menadione) (Human Keratinocytes [2]; [4]): 48.9^2%
% Protection (improvement vs. vehicle control + menadione) (Human Keratinocytes [2]; [5]): 72.7^1,2%
% Protection (improvement vs. vehicle control + menadione) (Human Keratinocytes [2]; [3]): 78.3^1,2%
% Protection (improvement vs. vehicle control + menadione) (Human Keratinocytes [2]; [6]): 65.9^1,2%
Cell viability (% of vehicle control) (Human Keratinocytes [2]; [4]): 109.8^2 % of vehicle control
Cell viability (% of vehicle control) (Human Keratinocytes [2]; [5]): 127.3^1,2 % of vehicle control
Cell viability (% of vehicle control) (Human Keratinocytes [2]; [3]): 131.5^1,2 % of vehicle control
Cell viability (% of vehicle control) (Human Keratinocytes [2]; [6]): 122.3^1,2 % of vehicle control

CC(C)(C)OC(=O)[C@@H](N)CSSC[C@H](N)C(=O)OC(C)(C)C.Cl.Cl [DTBC, Ditert-butyl L-cystinate dihydrochloride]
Mean (μm glutathione) (Aged Human Keratinocytes; [5]): 0.17^1 μm
Mean (μm glutathione) (Aged Human Keratinocytes; [3]): 0.19^1 μm
% Protection (improvement vs. vehicle control + menadione) (Aged Human Keratinocytes; [5]): 0^1%
% Protection (improvement vs. vehicle control + menadione) (Aged Human Keratinocytes; [3]): 1^1%
% Protection (improvement vs. vehicle control + menadione) (Human Keratinocytes [1]; [4]): 2.2%
% Protection (improvement vs. vehicle control + menadione) (Human Keratinocytes [1]; [5]): 13.8^1,2%
% Protection (improvement vs. vehicle control + menadione) (Human Keratinocytes [1]; [3]): 28.4^1,2%
% Protection (improvement vs. vehicle control + menadione) (Human Keratinocytes [1]; [6]): 41.1^1,2%
% Protection (improvement vs. vehicle control + menadione) (Human Keratinocytes [2]; [4]): 6.0%
% Protection (improvement vs. vehicle control + menadione) (Human Keratinocytes [2]; [5]): 3.0%
% Protection (improvement vs. vehicle control + menadione) (Human Keratinocytes [2]; [3]): −0.1%
% Protection (improvement vs. vehicle control + menadione) (Human Keratinocytes [2]; [6]): 41.3^2%
Cell viability (% of vehicle control) (Human Keratinocytes [2]; [4]): 78.1^1 % of vehicle control
Cell viability (% of vehicle control) (Human Keratinocytes [2]; [5]): 75.9^1 % of vehicle control
Cell viability (% of vehicle control) (Human Keratinocytes [2]; [3]): 73.6^1 % of vehicle control
Cell viability (% of vehicle control) (Human Keratinocytes [2]; [6]): 104.2^2 % of vehicle control

NC(=O)c1ccc[n+]([C@@H]2O[C@H](CO)[C@@H](O)[C@H]2O)c1 [Nicotinamide riboside, nicotinamide riboside]
% Protection (Aged Human Keratinocytes; [7]): 0%
Mean (uM glutathione) (Aged Human Keratinocytes; [8]): 0.16 µM

NC(=O)c1cccnc1 [Nicotinamide]
% Protection (Aged Human Keratinocytes; [7]): 0%
% Protection (Aged Human Keratinocytes; [9]): 0%
% Protection (Aged Human Keratinocytes; [10]): 1%
Mean (uM glutathione) (Aged Human Keratinocytes; [8]): 0.17 µM
Mean (uM glutathione) (Aged Human Keratinocytes; [11]): 0.14 µM
Mean (uM glutathione) (Aged Human Keratinocytes; [12]): 0.20 µM
% Protection (Aged Human Keratinocytes; Table 2A glutathione, nicotinamide at 5 mM, alone or with amino acids, + menadione): 3^1%
Mean (Glutathione Synthesis) (Aged Human Keratinocytes; Table 2A, nicotinamide at 5 mM, alone or with amino acids, + menadione): 0.13^1
ROS production (% of control) (Human Keratinocytes [1]; Table 1B, + menadione, 18 h, nicotinamide 10 mM, GAP typically 49 uM pyroglutamic acid, 60 uM cystine, 194 uM glycine): 231.00^3 % of control
% Protection (ROS) (Human Keratinocytes [1]; [13]): 17.70^3%
cell viability (% of control) (Human Keratinocytes [2]; Table 1B, + menadione, 18 h, nicotinamide 10 mM, GAP typically 49/60/194 uM): 92.90^3 % of control
% Protection (cell viability) (Human Keratinocytes [2]; [13]): 15.41^3%

NC(=O)c1ccccn1 [Picolinamide, picolinamide]
% Protection (Aged Human Keratinocytes; [7]): 2%
% Protection (Aged Human Keratinocytes; [9]): 0%
% Protection (Aged Human Keratinocytes; [10]): 0%
Mean (uM glutathione) (Aged Human Keratinocytes; [8]): 0.23 µM
Mean (uM glutathione) (Aged Human Keratinocytes; [11]): 0.18 µM
Mean (uM glutathione) (Aged Human Keratinocytes; [12]): 0.16 µM
